Consider 30 compounds from ChEMBL document CHEMBL1201862, “PubChem BioAssay data set” (2004).

Calls of active or inactive are those of the source. Where only a bound is given, the exact number is not on record here.

As a reminder, the IC50 is the concentration that inhibits the measured activity by half. The term AC50 denotes the midpoint of the concentration-response curve, whichever way the signal moves. In general, EC50 refers to the concentration at which the effect is half-maximal.

A short description of data set [1]: microbe, parasite or virus in culture. The note with it: Mycobacterium tuberculosis. In kind it is functional.
The target of data set [2] is T1, Fatty acid synthase (Homo sapiens, UniProt P49327). As to the kind of experiment: inhibition of human FAS-TE enzyme activity – biochemical, endpoint fluorescence intensity, uHTS hits, dose response (AID 624327).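 Further: fluorescence from hydrolysis of an O-methyl fluorescein acyl ester substrate by the enzyme.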 In kind it is functional.
In data set [3] the target is T1, Fatty acid synthase. As to the kind of experiment: inhibition of human FAS-TE enzyme activity – biochemical, kinetic fluorescence intensity, dose response (AID 624326).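 Further: rate of fluorescence rise from hydrolysis of a fluorogenic O-methyl fluorescein ester substrate.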 In kind it is functional.
A short description of data set [4]: Luminescence Cell-Based Dose Retest to Confirm Inhibitors of Cancer Stem Cells. [Related pubchem assays (depositor defined):AID2717, AID2721]. The note with it: Homo sapiens. In kind it is functional.
The nature of data set [5]: reduction of Shn3 3'UTR-driven luciferase in osteoblasts – cell-based, Clone20 osteoblasts, firefly luciferase, cherry-picked, dose response (AID 624132).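 Further: firefly luciferase luminescence from reporter carrying the Shn3 3'UTR in osteoblasts.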 It is filed as functional.
A short description of data set [6]: non-specific 3'UTR reporter inhibition in Clone20-Shn3RL – cell-based, Renilla luciferase, cherry-picked, counter-screen for Shn3 inhibitor project, dose response (AID 624133). In kind it is functional. On the technique in general: Counterscreens check selectivity or assay interference.
A short description of data set [7]: loss of viability in HepG2 cells – cell-based, CellTiter-Glo, cherry-picked, cytotoxicity control for Shn3 inhibitor project, dose response (AID 624134). In kind it is functional. In general terms: Cellular ATP, detected with luciferase, serves as a proxy for viable cell number.
The target in data set [8] is Cytochrome P450 3A4 (Homo sapiens, UniProt P08684).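 Further: CYP3A4 tested as one member of a cytochrome P450 panel screen.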
The target of data set [9] is T2, Cytochrome P450 2C9 (Homo sapiens, UniProt P11712).
Data set [10] deals with Cytochrome P450 2C19 (Homo sapiens, UniProt P33261). Nature of the data set: Cytochrome panel assay with activity outcomes. Panel member name: p450-cyp2c19 Compounds with AC50 equal or less than 10 uM are considered active. The note with it: read-out: AC50. In kind it is functional.
In data set [11] the target is T2, Cytochrome P450 2C9. This is another data set of the same source.
Data set [12] deals with T3, Carboxy-terminal domain RNA polymerase II polypeptide A small phosphatase 1 (Homo sapiens, UniProt Q9GZU7).
T3 sequence (Q9GZU7 whole entry): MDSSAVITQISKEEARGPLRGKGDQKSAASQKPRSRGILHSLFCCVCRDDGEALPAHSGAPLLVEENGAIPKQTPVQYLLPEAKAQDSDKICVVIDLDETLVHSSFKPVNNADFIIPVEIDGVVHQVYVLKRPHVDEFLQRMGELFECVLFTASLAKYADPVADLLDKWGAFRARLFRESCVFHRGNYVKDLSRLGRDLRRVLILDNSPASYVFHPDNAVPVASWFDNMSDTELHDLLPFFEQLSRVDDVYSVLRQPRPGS
As to the kind of experiment: CTDSP1 inhibitors, concentration-response, biochemical, absorbance readout, ultra-high-throughput screen actives (AID 540297). In kind it is functional.

The target of data set [13] is T4, Cytochrome P450 1A2 (Homo sapiens, UniProt P05177).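 Further: PubChem cytochrome P450 panel assay, CYP1A2 panel member.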
T4 sequence (P05177 whole entry): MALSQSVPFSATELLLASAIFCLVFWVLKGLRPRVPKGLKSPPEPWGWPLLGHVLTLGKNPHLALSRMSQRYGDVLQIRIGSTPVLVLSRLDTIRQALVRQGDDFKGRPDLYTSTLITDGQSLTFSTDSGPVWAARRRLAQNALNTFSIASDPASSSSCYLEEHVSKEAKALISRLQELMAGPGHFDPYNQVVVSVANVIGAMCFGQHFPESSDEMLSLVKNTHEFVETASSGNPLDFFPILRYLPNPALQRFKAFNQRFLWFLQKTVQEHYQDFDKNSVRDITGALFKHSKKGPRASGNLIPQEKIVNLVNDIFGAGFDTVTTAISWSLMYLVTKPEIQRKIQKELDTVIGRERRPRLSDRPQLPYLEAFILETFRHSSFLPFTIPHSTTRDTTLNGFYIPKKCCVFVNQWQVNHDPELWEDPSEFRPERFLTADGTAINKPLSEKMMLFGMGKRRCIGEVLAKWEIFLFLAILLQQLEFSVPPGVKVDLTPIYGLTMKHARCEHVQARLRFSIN

For data set [14], the target named is Genome polyprotein (dengue virus type 2, UniProt P29990). Nature of the data set: flavivirus cap methylation enzyme inhibition – biochemical, confirmation dose response, primary screen (AID 588689). In kind it is functional.
Data set [15] addresses Cytochrome P450 2D6 (Homo sapiens, UniProt P10635).
Data set [16] in a line: NIH3T3 cell viability loss – ATP luminescence, mouse fibroblasts, counter-screen, dose response (AID 2010).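 Further: cells exposed to compound for about 90 hours before reading.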 In kind it is functional, cell-based.
Data set [17] concerns Streptococcus sp. 'group A'. As to the kind of experiment: Streptococcus pyogenes SK(-)GAS viability under kanamycin – luminescence, BacTiterGlo, confirmation, counter-screen for streptokinase expression inhibitor project, dose response (AID 1900). It is filed as functional, organism-based.
Data set [18] is described as follows: Trypanosoma cruzi growth suppression in host cells – NIH3T3 host cells, beta-gal luminescence, confirmation (AID 2044).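 Further: intracellular parasites grown in NIH/3T3 mouse fibroblasts as host cells; luminescent beta-galactosidase reporter signal from transgenic T. cruzi replicating inside host cells; inhibitors lower the luminescence signal.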 In kind it is functional, cell-based.
Data set [19] concerns Streptococcus. Nature of the data set: GAS UMAA2166 growth inhibition – luminescence, BacTiterGlo, counter-screen for streptokinase expression inhibitor project, dose response (AID 1915).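 Further: potency for reduction of bacterial viability or growth.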 It is filed as functional, organism-based.
Data set [20] addresses T5, Streptokinase A (Streptococcus pyogenes serotype M1, UniProt P10520).
T5 sequence (P10520 whole entry): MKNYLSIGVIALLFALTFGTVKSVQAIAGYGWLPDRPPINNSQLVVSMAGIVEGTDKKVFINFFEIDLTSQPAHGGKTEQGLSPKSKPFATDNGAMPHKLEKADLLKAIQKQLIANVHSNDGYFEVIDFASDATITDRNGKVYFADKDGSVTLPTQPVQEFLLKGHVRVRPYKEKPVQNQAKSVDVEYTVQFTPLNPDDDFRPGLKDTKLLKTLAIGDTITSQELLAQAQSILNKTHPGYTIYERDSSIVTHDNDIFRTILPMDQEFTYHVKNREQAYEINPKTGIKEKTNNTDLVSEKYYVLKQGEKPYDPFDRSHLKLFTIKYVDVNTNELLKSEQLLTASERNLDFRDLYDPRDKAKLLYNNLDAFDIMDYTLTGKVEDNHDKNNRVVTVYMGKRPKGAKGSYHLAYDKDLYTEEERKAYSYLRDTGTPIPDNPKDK
Nature of the data set: viability-normalized secreted streptokinase activity reduction – plasminogen activation absorbance, OD405, dose response (AID 1914).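 Further: secreted streptokinase activity via plasminogen activation per viability signal from cell pellet.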 In kind it is functional, Streptococcus pyogenes M1 GAS.

T2 sequence (P11712 whole entry): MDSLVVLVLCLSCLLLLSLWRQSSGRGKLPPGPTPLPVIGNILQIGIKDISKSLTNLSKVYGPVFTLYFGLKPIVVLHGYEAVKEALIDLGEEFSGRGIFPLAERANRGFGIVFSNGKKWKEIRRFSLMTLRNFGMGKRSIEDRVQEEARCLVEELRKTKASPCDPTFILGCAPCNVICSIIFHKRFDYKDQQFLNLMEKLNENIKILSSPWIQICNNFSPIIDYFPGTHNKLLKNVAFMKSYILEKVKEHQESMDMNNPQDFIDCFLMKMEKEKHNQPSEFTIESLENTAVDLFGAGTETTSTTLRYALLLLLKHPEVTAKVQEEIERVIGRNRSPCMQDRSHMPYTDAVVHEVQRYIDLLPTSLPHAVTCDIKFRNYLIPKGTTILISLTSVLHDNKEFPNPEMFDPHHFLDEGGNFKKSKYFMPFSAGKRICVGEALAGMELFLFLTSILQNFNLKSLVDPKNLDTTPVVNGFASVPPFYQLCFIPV
Sequence of Cytochrome P450 2C19 (P33261 whole entry): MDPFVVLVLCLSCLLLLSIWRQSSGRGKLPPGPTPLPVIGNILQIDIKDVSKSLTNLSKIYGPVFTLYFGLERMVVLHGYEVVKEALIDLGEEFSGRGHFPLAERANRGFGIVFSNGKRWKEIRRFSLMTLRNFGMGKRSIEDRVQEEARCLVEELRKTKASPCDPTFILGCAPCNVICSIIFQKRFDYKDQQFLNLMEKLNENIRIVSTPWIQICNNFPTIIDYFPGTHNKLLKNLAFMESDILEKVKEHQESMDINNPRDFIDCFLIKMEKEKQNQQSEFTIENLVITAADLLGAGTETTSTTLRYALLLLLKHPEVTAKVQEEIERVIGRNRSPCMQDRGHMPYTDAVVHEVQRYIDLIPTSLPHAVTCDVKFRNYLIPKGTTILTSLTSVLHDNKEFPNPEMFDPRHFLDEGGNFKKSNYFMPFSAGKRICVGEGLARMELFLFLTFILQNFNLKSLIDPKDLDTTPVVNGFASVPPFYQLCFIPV
T1 sequence (P49327 whole entry): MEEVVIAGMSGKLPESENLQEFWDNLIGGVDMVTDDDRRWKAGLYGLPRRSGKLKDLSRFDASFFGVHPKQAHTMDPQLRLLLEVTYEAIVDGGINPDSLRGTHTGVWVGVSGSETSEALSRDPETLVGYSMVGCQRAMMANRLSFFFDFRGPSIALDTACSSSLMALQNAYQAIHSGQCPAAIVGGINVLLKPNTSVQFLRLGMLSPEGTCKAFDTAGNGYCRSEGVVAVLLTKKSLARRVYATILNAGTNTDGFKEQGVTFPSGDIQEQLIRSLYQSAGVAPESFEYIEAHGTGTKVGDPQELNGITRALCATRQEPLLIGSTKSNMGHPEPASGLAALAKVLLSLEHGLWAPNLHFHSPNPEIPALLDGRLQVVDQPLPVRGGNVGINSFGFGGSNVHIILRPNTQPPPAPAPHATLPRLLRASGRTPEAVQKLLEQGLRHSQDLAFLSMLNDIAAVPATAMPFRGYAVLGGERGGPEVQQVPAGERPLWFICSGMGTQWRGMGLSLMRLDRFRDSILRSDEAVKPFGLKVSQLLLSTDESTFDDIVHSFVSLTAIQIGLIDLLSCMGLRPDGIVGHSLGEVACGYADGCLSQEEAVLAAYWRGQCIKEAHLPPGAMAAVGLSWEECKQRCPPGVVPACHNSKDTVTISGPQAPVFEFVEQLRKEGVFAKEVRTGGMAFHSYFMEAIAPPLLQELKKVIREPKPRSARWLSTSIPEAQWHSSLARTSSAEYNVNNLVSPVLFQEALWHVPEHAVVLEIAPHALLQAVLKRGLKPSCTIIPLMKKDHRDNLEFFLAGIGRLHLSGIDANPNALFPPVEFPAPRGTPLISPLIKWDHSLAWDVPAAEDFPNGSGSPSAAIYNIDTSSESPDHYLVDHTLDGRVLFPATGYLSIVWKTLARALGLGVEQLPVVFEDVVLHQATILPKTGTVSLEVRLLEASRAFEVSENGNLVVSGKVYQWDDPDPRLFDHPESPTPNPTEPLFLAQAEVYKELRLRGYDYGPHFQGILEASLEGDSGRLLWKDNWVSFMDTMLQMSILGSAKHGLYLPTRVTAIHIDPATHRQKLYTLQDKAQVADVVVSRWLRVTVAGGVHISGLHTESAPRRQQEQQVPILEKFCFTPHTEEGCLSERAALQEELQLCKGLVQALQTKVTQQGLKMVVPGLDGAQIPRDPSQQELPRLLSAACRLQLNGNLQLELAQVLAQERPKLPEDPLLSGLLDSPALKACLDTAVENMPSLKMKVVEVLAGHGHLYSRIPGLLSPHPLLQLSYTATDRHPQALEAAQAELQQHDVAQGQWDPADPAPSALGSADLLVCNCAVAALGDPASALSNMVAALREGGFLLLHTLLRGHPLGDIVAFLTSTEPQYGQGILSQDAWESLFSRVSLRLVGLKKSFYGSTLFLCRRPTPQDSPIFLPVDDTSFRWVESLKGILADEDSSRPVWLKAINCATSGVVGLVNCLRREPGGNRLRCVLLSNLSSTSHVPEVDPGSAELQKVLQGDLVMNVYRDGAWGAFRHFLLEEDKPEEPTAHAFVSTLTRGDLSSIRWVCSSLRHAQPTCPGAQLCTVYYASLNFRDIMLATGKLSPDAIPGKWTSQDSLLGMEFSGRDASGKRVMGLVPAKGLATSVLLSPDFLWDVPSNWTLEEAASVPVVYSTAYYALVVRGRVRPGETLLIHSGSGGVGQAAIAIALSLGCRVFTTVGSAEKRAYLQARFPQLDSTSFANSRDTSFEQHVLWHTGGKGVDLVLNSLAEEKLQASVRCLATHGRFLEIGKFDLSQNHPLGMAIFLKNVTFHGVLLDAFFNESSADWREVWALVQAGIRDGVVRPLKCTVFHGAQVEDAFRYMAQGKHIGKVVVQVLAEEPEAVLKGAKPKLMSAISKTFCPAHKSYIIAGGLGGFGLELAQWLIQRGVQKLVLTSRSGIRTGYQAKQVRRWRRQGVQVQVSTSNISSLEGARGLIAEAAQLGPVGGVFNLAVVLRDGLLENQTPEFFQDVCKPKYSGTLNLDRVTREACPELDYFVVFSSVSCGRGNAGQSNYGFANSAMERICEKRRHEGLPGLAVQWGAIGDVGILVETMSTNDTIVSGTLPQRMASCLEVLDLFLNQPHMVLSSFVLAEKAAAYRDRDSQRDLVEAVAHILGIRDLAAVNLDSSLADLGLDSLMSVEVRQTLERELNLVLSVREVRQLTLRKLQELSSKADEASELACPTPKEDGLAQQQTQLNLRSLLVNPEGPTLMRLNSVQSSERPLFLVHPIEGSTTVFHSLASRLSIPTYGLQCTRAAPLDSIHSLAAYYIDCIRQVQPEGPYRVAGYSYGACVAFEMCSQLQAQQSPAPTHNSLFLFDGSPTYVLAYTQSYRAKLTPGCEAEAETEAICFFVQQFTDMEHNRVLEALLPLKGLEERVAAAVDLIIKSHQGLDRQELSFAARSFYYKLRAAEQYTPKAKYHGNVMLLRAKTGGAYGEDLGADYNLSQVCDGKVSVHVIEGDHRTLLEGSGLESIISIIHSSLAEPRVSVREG
Sequence of Cytochrome P450 3A4 (P08684 whole entry): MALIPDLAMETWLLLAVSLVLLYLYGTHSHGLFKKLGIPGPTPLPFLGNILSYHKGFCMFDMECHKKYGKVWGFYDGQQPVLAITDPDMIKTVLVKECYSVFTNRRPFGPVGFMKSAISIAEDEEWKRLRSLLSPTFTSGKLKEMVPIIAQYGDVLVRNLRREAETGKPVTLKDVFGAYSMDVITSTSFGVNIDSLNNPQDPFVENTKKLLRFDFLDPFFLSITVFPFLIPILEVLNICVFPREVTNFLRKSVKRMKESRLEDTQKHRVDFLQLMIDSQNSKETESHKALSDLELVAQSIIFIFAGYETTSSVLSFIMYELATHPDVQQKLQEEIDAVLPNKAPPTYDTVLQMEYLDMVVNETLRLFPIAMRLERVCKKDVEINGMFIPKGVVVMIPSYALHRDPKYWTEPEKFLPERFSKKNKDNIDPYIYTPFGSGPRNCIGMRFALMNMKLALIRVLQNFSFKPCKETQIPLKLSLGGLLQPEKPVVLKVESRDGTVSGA
Sequence of Genome polyprotein (P29990 2492-3391 limits assumed): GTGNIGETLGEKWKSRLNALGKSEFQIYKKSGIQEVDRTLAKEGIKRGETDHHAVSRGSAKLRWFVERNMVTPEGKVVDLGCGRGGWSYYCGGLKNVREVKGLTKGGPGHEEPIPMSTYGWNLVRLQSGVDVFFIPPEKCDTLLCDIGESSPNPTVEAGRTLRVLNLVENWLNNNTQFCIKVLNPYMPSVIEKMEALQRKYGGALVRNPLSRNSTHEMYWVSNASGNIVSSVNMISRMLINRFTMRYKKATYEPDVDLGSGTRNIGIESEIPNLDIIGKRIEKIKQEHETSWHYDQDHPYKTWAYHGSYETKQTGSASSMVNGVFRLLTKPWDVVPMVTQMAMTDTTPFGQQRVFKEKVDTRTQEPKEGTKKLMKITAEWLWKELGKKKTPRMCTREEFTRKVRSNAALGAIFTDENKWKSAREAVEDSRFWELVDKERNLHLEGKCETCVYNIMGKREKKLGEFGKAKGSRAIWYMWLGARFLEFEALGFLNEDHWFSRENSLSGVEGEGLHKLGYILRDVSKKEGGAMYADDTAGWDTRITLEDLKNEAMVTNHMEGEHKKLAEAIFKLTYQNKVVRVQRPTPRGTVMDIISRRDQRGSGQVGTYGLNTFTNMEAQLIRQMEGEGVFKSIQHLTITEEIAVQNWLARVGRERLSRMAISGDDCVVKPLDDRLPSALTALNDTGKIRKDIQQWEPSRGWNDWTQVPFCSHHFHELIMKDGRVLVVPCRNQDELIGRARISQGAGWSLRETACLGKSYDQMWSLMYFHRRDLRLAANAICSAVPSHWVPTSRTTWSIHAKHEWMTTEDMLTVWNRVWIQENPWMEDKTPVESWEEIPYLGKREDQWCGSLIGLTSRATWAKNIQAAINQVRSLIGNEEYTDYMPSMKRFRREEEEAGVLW

In the case of `COc1ccc(N2COC3c4cccc5cccc(c45)C32)cc1` (stereo not given), the CC50 in [1] was > 40 µM (active).

On to `CC(C)c1ccc2c(c1)c(SC(C)(C)C)c(CC(C)(C)C(=O)O)n2Cc1ccc(Cl)cc1`, for which the IC50 is 10.1 µM (active) in data set [2] and 8.48 µM (active) in [3]. In addition, the half-maximal activity concentration (AC50) in data set [4] is 1.58 µM (active).

With `c1ccc(CN=C(NCc2ccccc2)NCc2ccccc2)cc1`, the results for the concentration at half-maximal activity (AC50) in [5], in data set [6] and in data set [7] were 1.79 µM (active), 2.06 µM (active) and 21.9 µM (active), respectively.

Regarding `O=c1cnc2cnc(N3CCOCC3)nc2n1C[C@H]1CCCO1`, the figures for the AC50 in data set [8] and in data set [9] were 15.8 µM (inconclusive) and “inconclusive”, respectively.

As for `C=CCOc1ccc(CNC(C)(C)CO)cc1OCC.Cl`, in data set [9], the AC50 entry is “inconclusive”.

`CC(C)c1ccc(NC(=O)Nc2nc(C(N)CCc3ccccc3)cs2)cc1` (stereo not given): the half-maximal activity concentration (AC50) in [5] is 5.36 µM (active); in data set [6] it was 10.3 µM (active); in data set [7], 10.6 µM (active).

For the compound `COC(=O)CCC(=O)NNC(=O)CCCOc1ccc(Cl)cc1Cl`, the AC50 was 3.55 µM (inconclusive) in data set [10], 15.8 µM (inconclusive) in data set [8] and “inconclusive” in [9].

On to `CC(C)C[C@@H](CO)N(Cc1ccccc1)S(=O)(=O)N(Cc1ccccc1)[C@@H](CO)CC(C)C`, for which the AC50 in [5] was 11.4 µM (active); in [4], 4.21 µM (active); in data set [6], 31 µM (active); in data set [7] it was 21.9 µM (active).

Turning to `NP(=O)(Oc1ccccc1Cl)Oc1ccccc1Cl`, the IC50 in data set [2] is 5.09 µM (active); in data set [3] it was 8.31 µM (active).

`O=C1Nc2cc(Cl)c(Cl)cc2N(O)N1c1ccc(Cl)c(Cl)c1`: the figures for the AC50 in [10], in data set [11] and in data set [8] were 28.2 µM (inconclusive), 3.98 µM (inconclusive) and 39.8 µM (inconclusive), respectively. The IC50 in data set [2] is 6.59 µM (active); in [3], 12 µM (active).

For `O=C(Nc1ccccc1[N+](=O)[O-])OCC=Cc1ccccc1`, the IC50 in data set [2] is 8.17 µM (active); in data set [3], 6.3 µM (active).

With `CCNc1nc(NCC)n2c(SCC(=O)Nc3ccc(F)cc3)nnc2n1`, the 50% inhibitory concentration (IC50) in data set [12] was 10.3 µM (active).

Regarding `CCCCCCCC/C=C\CCCCCCCC(=O)N[C@@H](CO)Cc1ccc(O)cc1`, the AC50 is 31.6 µM (inconclusive) in [10], 25.1 µM (inconclusive) in [13] and “inconclusive” in data set [9].

Take `Cc1cc(C)cc(-n2nnnc2SCC(=O)Nc2nc(-c3ccc(F)cc3)cs2)c1`: the AC50 in data set [10] is 5.01 µM (inconclusive); in [13], 3.16 µM (inconclusive); in [9], “inconclusive”.

For the compound `C#CCOc1ccccc1/C=C1/C(=O)ON=C1C`, in [14], the IC50 is > 100 µM (active).

`O=C(Cc1ccccc1[N+](=O)[O-])NCc1ccccc1Cl`: the AC50 in [8] was 15.8 µM (inconclusive); in [9], “inconclusive”; in data set [15], 15.8 µM (inconclusive).

Consider `Cc1cc(C(=O)CSc2nc(N)cc(O)n2)c(C)n1-c1cccc(F)c1`, for which the concentration at half-maximal activity (AC50) was 1.66 µM (active) in data set [5], 26.2 µM (active) in data set [6] and > 70 µM (inactive) in data set [7].

Regarding `CCn1c(C)c(C(C)=O)c(N2CCN(C(c3ccccc3)c3ccccc3)CC2)nc1=S`, the half-inhibitory concentration (IC50) is 8.43 µM (active) in [2] and 23.1 µM (inactive) in data set [3].

On to `O=C(O)CC(NC(=O)CC(c1ccccc1)c1ccccc1)c1cccc([N+](=O)[O-])c1` (stereo not given), for which the IC50 in data set [2] was 7.88 µM (active); in data set [3] it was 9.88 µM (active).

With `COC(=O)c1ccc(/C=N/NC(=O)c2cccc(F)c2)cc1`, in data set [12], the IC50 is 11.4 µM (active).

Consider `CN(C)Cc1ccccc1-c1cc(NC2CC2)ncn1`, for which the AC50 result in data set [9] is listed as “inconclusive”.

For `Cc1cccc(COCC(CC(C)C)N2CCN(C(=O)c3ccc(C(C)(C)C)cc3)CCC2=O)c1` (stereo not given), the half-inhibitory concentration (IC50) is 8.21 µM (active) in data set [2] and 6.11 µM (active) in data set [3].

On to `COc1ccc(S(=O)(=O)N2CCC(C(=O)NCC3CCCO3)CC2)cc1C` (stereo not given), for which the values for the AC50 in [8] and in data set [9] were 15.8 µM (inconclusive) and “inconclusive”, respectively.

On to `COc1ccc(C2=NN(C(=O)CSc3nc(=O)n4cc(C)ccc4n3)C(c3ccc(C)cc3)C2)cc1` (stereo not given), for which the concentration for half-maximal inhibition (IC50) is 19.2 µM (active) in [2] and 12.9 µM (active) in data set [3].

Regarding `Cc1cc(O)c2c(c1)C(=O)[C@@]13Oc4c5c(c(O)c6c(O)cc(C)cc46)C(=O)C[C@H](O)[C@H]5[C@@H]1[C@@H](O)CC(=O)C3=C2O`, the IC50 in data set [14] is 16.7 µM (active).

With `O=C(CN1C(=O)NC2(CCCC2)C1=O)OCc1cc(=O)n2cc(Br)ccc2n1`, in [12], the half-inhibitory concentration (IC50) is 6.81 µM (active).

Regarding `Cc1cc(=O)oc2cc(NC(=O)c3cccc(F)c3)ccc12`, the IC50 in data set [12] is 4.51 µM (active).

Turning to `Cc1ccc(OC(=O)c2oc3ccc(F)cc3c2C)c(C)c1`, the concentration at half-maximal activity (AC50) in data set [10] is 11.2 µM (inconclusive); in [11], 10 µM (inconclusive); in data set [8] it was 39.8 µM (inconclusive). The CC50 in data set [1] was 3.94 µM (active).

With `Clc1ccc(CNc2nc(CN3CCOCC3)nc3scc(-c4ccccc4)c23)cc1`, the CC50 in [1] is > 40 µM (active).

On to `Cc1cccc(NC(=O)c2[nH]cnc2C(=O)N[C@@H](CCCCNC(=O)OC(C)(C)C)C(=O)OC(C)(C)C)c1`, for which the EC50 in data set [16] was > 60 µM (not active); in [17] it was 3.46 µM (active); in [18] it was 2.44 µM (active); in data set [19], 8.6 µM (active); in data set [20] it was > 150 µM (not active). The results for the IC50 in [2] and in data set [3] were 1.12 µM (active) and 0.658 µM (active), respectively.
